Measured values: patent US6670363B1, “Azole compounds as therapeutic agents for fungal infections” (Ranbaxy Laboratories Limited, priority 2000, dated 2003)
In brackets after ≈: the same amount, converted by molar mass.

What was measured:
Format in all cases: cell-based
A. fumigatus s 1008 = assay: In vitro MIC, NCCLS M38P broth method (RPMI 1640/MOPS pH7), Aspergillus fumigatus; conditions: A. fumigatus strain 1008
Candida = assay: In vitro MIC, NCCLS M27A, Candida species; set-up: MIC, Candida albicans 1.549 / MIC, Candida albicans Y-01-19 / MIC, C. krusei 766-1 / MIC, C. krusei Q. C / MIC, Candida tropicalis ATCC / MIC, C. glabrata 90030: unit not given beside the values; MIC, Candida albicans A 26 / MIC, C. parapsilosis Q. C.: unit not given here; conditions: for MIC, C. glabrata 90030: C. glabrata strain 90030; for MIC, C. krusei 766-1: C. krusei strain 766-1; for MIC, C. krusei Q. C: C. krusei strain Q. C; for MIC, C. parapsilosis Q. C.: C. parapsilosis strain Q. C.; for MIC, Candida albicans 1.549: Candida albicans strain 1.549; for MIC, Candida albicans A 26: Candida albicans strain A 26; for MIC, Candida albicans Y-01-19: Candida albicans strain Y-01-19
Cryptococcus neoformans = assay: In vitro MIC, NCCLS M27A, Cryptococcus neoformans; set-up: MIC, C. neoformans I: unit not given beside the values; MIC, C. neoformans M 106: unit not given here; conditions: for MIC, C. neoformans I: C. neoformans strain I; for MIC, C. neoformans M 106: C. neoformans strain M 106
Histoplasma capsulatum = test system: Histoplasma capsulatum

Compound	MIC, A. fumigatus 1008 (A. fumigatus s 1008)	MIC, C. glabrata 90030 (Candida)	MIC, C. krusei 766-1 (Candida)	MIC, C. krusei Q. C (Candida)	MIC, C. parapsilosis Q. C. (Candida)	MIC, Candida albicans 1.549 (Candida)	MIC, Candida albicans A 26 (Candida)	MIC, Candida albicans Y-01-19 (Candida)	MIC, Candida tropicalis ATCC (Candida)	MIC, C. neoformans I (Cryptococcus neoformans)	MIC, C. neoformans M 106 (Cryptococcus neoformans)	MIC, H. capsulatum (Histoplasma capsulatum)
C[C@@H](n1ncn(-c2ccc(N3CCN(c4ccc(Cl)cc4)CC3)cc2)c1=O)[C@](O)(Cn1cncn1)c1ccc(F)cc1F [Compound 1, 2-{[1R2R/1S2S]-2-(2,4-Difluorophenyl)-2-hydroxy-1-methyl-3-(1H-1,2,4-triazol-1-yl)propyl}-4-{4-[4-(4-chlorophenyl)-1-piperazinyl]phenyl}-3-(2H,4H)-1,2,4-triazolone]	0.12	0.25	0.25	0.12	<0.03	0.12	<0.03	0.12	<0.03	<0.03	<0.03	0.06 µg/mL (≈ 0.0988 µM)
C[C@@H](n1ncn(-c2ccc(N3CCN(c4ccc(Cl)cc4)CC3)cc2)c1=O)[C@@](O)(Cn1cncn1)c1ccc(F)cc1F [Compound 2, 2-{[1R2S/1S2R]-2-(2,4-Difluorophenyl)-2-hydroxy-1-methyl-3-(1H-1,2,4-triazol-1-yl)propyl}-4-{4-[4-(4-chlorophenyl)-1-piperazinyl]phenyl}-3-(2H,4H)-1,2,4-triazolone]	>16	0.50	2.00	1.00	<0.03	1.00	<0.03	0.25	<0.03	<0.03	<0.03	< 0.03 µg/mL
C[C@@H](n1ncn(-c2ccc(N3CCN(c4ccc([N+](=O)[O-])cc4[N+](=O)[O-])CC3)cc2)c1=O)[C@](O)(Cn1cncn1)c1ccc(F)cc1F [Compound 3, 2-{[1R2R/1S2S]-2-(2,4-Difluorophenyl)-2-hydroxy-1-methyl-3-(1H-1,2,4-triazol-1-yl)propyl}-4-{4-[4-(2,4-dinitrophenyl)-1-piperazinyl]phenyl}-3-(2H,4H)-1,2,4-triazolone]	0.25	0.25	1.00	0.50	<0.03	0.12	<0.03	0.50	<0.03	<0.03	<0.03	< 0.03 µg/mL
C[C@@H](n1ncn(-c2ccc(N3CCN(c4ccc([N+](=O)[O-])cc4[N+](=O)[O-])CC3)cc2)c1=O)[C@@](O)(Cn1cncn1)c1ccc(F)cc1F [Compound 4, 2-{[1R2S/1S2R]-2-(2,4-Difluorophenyl)-2-hydroxy-1-methyl-3-(1H-1,2,4-triazol-1-yl)propyl}-4-{4-[4-(2,4-dinitrophenyl)-1-piperazinyl]phenyl}-3-(2H,4H)-1,2,4-triazolone]	>16	2.00	>16	>16	0.25	4.00	<0.03	>16	<0.03	0.25	1.00	0.5 µg/mL (≈ 0.755 µM)
C[C@@H](n1ncn(-c2ccc(N3CCN(c4ccccc4)CC3)cc2)c1=O)[C@](O)(Cn1cncn1)c1ccc(F)cc1F [Compound 5]	0.50	1.00	0.50	0.12	<0.03	2.00	<0.03	0.12	<0.03	<0.03	<0.03	< 0.03 µg/mL
C[C@@H](n1ncn(-c2ccc(N3CCN(c4ccccc4)CC3)cc2)c1=O)[C@@](O)(Cn1cncn1)c1ccc(F)cc1F [Compound 6, 2-{[1R2S/1S2R]-2-(2,4-Difluorophenyl)-2-hydroxy-1-methyl-3-(1H-1,2,4-triazol-1-yl)propyl}-4-[4-(1-phenylpiperazinyl)phenyl]-3-(2H,4H)-1,2,4-triazolone]	>16	>16	>16	16.0	0.125	2.00	<0.03	8.00	<0.03	0.25	2.00	0.12 µg/mL (≈ 0.21 µM)
C[C@@H](n1ncn(-c2ccc(N3CCN(c4ccc(Cl)c(Cl)c4)CC3)cc2)c1=O)[C@](O)(Cn1cncn1)c1ccc(F)cc1F [Compound 7, 2-{[1R2R/1S2S]-2-(2,4-Difluorophenyl)-2-hydroxy-1-methyl-3-(1H-1,2,4-triazol-1-yl)propyl}-4-{4-[4-(3,4-dichlorophenyl)-1-piperzinyl]phenyl}-3-(2H,4H)-1,2,4-triazolone]	0.25	0.12	0.25	0.12	<0.03	0.25	<0.03	0.12	<0.03	<0.03	<0.03	0.12 µg/mL (≈ 0.187 µM)
C[C@@H](n1ncn(-c2ccc(N3CCN(c4ccc(Cl)c(Cl)c4)CC3)cc2)c1=O)[C@@](O)(Cn1cncn1)c1ccc(F)cc1F [Compound 8, 2-{[1R2S/1S2R]-2-(2,4-Difluorophenyl)-2-hydroxy-1-methyl-3-(1H-1,2,4-triazol-1-yl)propyl}-4-{4-[4-(3,4-dichlorophenyl)-1-piperazinyl]phenyl}-3-(2H,4H)-1,2,4-triazolone]	>16	>16	>16	>16	1.00	>16	<0.03	>16	>16	16.00	16.00	2 µg/mL (≈ 3.12 µM)
C[C@@H](n1ncn(-c2ccc(N3CCN(c4cccc(C(F)(F)F)c4)CC3)cc2)c1=O)[C@](O)(Cn1cncn1)c1ccc(F)cc1F [Compound 9, 2-{[1R2R/1S2S]-2-(2,4-Difluorophenyl)-2-hydroxy-1-methyl-3-(1H-1,2,4-triazol-1-yl)propyl}-4-{4-[4-(3-trifluoromethylphenyl)-1-piperazinyl]phenyl}-3-(2H,4H)-1,2,4-triazolone]	0.50	0.25	0.50	0.12	<0.03	0.25	<0.03	0.25	<0.03	<0.03	<0.03	0.06 µg/mL (≈ 0.0937 µM)
Cc1nn([C@H](C)[C@@](O)(Cn2cncn2)c2ccc(F)cc2F)c(=O)n1-c1ccc(N2CCN(c3ccc(Cl)cc3Cl)CC2)cc1 [Compound 34, 2-{[1R2S/1S2R]-2-(2,4-Difluorophenyl)-2-hydroxy-1-methyl-3-(1H-1,2,4-triazol-1-yl)propyl}-4-{4-[4-(2,4-dichlorophenyl)-1-piperazinyl]phenyl}-3-(2H,4H)-5-methyl-1,2,4-triazolone]		0.50	2.00	1.00	0.25	1.00	<0.03	1.00	<0.03	0.25	<0.03	0.12 µg/mL (≈ 0.183 µM)
